Results from publication PMC8591608, “DNDI-6148: A Novel Benzoxaborole Preclinical Candidate for the Treatment of Visceral Leishmaniasis” (Journal of Medicinal Chemistry, 2021).
Converted amounts (≈) assume the structure as drawn. Like-named read-outs stand apart in the source and are kept apart here.

What was measured:
Thermodynamic solubility = format: physicochemical
Procedure: The thermodynamic solubility was measured by WuXi AppTec, China. Aliquots of the compound DMSO stock (10 mM) were transferred to fasted state simulated intestinal fluid (FaSSIF) buffer (pH 6.5) or fed state simulated intestinal fluid (FeSSIF) buffer (pH 5.0), and the mixtures were shaken for 24 h at room temperature. Following sampling by a Whatman filter device, the compound concentrations were determined by UV spectroscopy.

[1] = tested on: panel of 88 targets (Cerep panel); experiment: Off-target panel (Eurofins Cerep panel); details: at a concentration of 10 μM
[2] = In vivo pharmacokinetics in rat; design: species or system male Sprague-Dawley rats; details: for MRT inf: read-out: MRT0-inf; for MRT last: read-out: MRT0-last
Procedure: DNDI-6148 was formulated in 2% ethanol, 1 mol equiv NaOH, dextrose (5% solution), and administrated to male Sprague-Dawley rats, either i.v. after filtration and pH adjustment (at 2 mg/kg), or p.o. as a homogenous suspension (at 10 mg/kg). The K2-EDTA anticoagulant was added to blood samples collected at predose, 0.083 (i.v. only), 0.25, 0.5, 1, 2 (p.o. only), 4, 8, and 24 h, and were processed to plasma and stabilized with phosphoric acid (1% final) before analysis by LC-MS/MS. PK parameters were calculated using WinNonlin software (version 6.21 and 6.3).

[3] = male, Sprague-Dawley, plasma, iv, rat, i.v. 2 mg/kg
[4] = male, Sprague-Dawley, rat, plasma, IV 2.32 mg/kg, mean of R1-R3
[5] = male, Sprague-Dawley, rat, plasma, PO 10.4 mg/kg, mean of R4-R6

Q: Which solubility at 24 h (Thermodynamic solubility; FaSSIF buffer pH 6.5, read-out: FaSSIF solubility) does the source give for `Cc1c(C(=O)Nc2ccc3c(c2)B(O)OC3)nnn1-c1ccccn1` [Compound 23, N-(1-Hydroxy-1,3-dihydrobenzo[c][1,2]oxaborol-6-yl)-5-methyl-1-(pyridin-2-yl)-1H-1,2,3-triazole-4-carboxamide] here?
A: The solubility at 24 h was 5.4 µg/mL (≈ 16.1 µM).

Q: And the solubility at 24 h (Thermodynamic solubility; FeSSIF buffer pH 5.0, read-out: FeSSIF solubility)?
A: Its solubility at 24 h is 6.3 µg/mL (≈ 18.8 µM).

Q: What about the “activity in panel of 88 targets” value [1] of the same compound?
A: The value was ≤ 50%.

Q: And the Plasma concentration ([2]; IV 2.32 mg/kg, plasma, 5 min, mean of R1-R3)?
A: The Plasma concentration was 4727.

Q: What about the Plasma concentration ([2]; IV 2.32 mg/kg, plasma, 0.25 h, mean of R1-R3) of the same compound?
A: Its Plasma concentration is 4093.

Q: What about the Plasma concentration ([2]; IV 2.32 mg/kg, plasma, 0.50 h, mean of R1-R3) of the same compound?
A: The Plasma concentration was 3627.

Q: What about the Plasma concentration ([2]; IV 2.32 mg/kg, plasma, 1.00 h, mean of R1-R3) of the same compound?
A: The Plasma concentration was 2767.

Q: What about the Plasma concentration ([2]; IV 2.32 mg/kg, plasma, 4.00 h, mean of R1-R3) of the same compound?
A: Its Plasma concentration is 537.

Q: What about the Plasma concentration ([2]; IV 2.32 mg/kg, plasma, 8.00 h, mean of R1-R3) of the same compound?
A: Its Plasma concentration is 84.9.

Q: And the Plasma concentration ([2]; IV 2.32 mg/kg, plasma, 24.0 h, mean of R1-R3)?
A: The Plasma concentration was 5.67.

Q: What about the AUC0-inf/AUC0-last ([2]; IV 2.32 mg/kg, mean of R1-R3) of the same compound?
A: The AUC0-inf/AUC0-last was 100%.

Q: And the Tlast ([2]; IV 2.32 mg/kg, mean of R1-R3)?
A: Its Tlast is 24.0 h.

Q: And the Plasma concentration ([2]; PO 10.4 mg/kg, plasma, 0.25 h, mean of R4-R6)?
A: Its Plasma concentration is 4287.

Q: And the Plasma concentration ([2]; PO 10.4 mg/kg, plasma, 0.50 h, mean of R4-R6)?
A: Its Plasma concentration is 3993.

Q: And the Plasma concentration ([2]; PO 10.4 mg/kg, plasma, 1.00 h, mean of R4-R6)?
A: The Plasma concentration was 5153.

Q: And the Plasma concentration ([2]; PO 10.4 mg/kg, plasma, 2.00 h, mean of R4-R6)?
A: Its Plasma concentration is 6900.

Q: And the Plasma concentration ([2]; PO 10.4 mg/kg, plasma, 4.00 h, mean of R4-R6)?
A: Its Plasma concentration is 5773.

Q: And the Plasma concentration ([2]; PO 10.4 mg/kg, plasma, 8.00 h, mean of R4-R6)?
A: Its Plasma concentration is 1249.

Q: What about the Plasma concentration ([2]; PO 10.4 mg/kg, plasma, 24.0 h, mean of R4-R6) of the same compound?
A: The Plasma concentration was 13.8.

Q: What about the AUC0-inf/AUC0-last ([2]; PO 10.4 mg/kg, mean of R4-R6) of the same compound?
A: Its AUC0-inf/AUC0-last is 100%.

Q: And the Tlast ([2]; PO 10.4 mg/kg, mean of R4-R6)?
A: Its Tlast is 24.0 h.

Q: And the Vd at 24 h [2, 3]?
A: The Vd at 24 h was 0.6 L/kg.

Q: What about the half-life at 24 h [2, 3] of the same compound?
A: Its half-life at 24 h is 2.8 h.

Q: And the clearance ([2]; male, Sprague-Dawley, plasma, iv, rat, i.v. 2 mg/kg, read-out: clearance)?
A: Its clearance is 4.5 mL/min/kg.

Q: What about the bioavailability ([2]; male, Sprague-Dawley, plasma, po, rat, p.o. 10 mg/kg, read-out: F) of the same compound?
A: Its bioavailability is 94%.

Q: And the AUC(0-inf) [2, 4]?
A: Its AUC(0-inf) is 9160 ng·h/mL.

Q: What about the AUC(0-t) [2, 4] of the same compound?
A: Its AUC(0-t) is 9140 ng·h/mL.

Q: What about the C0 [2, 4] of the same compound?
A: The C0 was 5100 ng/mL.

Q: And the half-life [2, 4]?
A: The half-life was 2.75 h.

Q: And the clearance ([2]; male, Sprague-Dawley, rat, plasma, IV 2.32 mg/kg, mean of R1-R3, read-out: Cl)?
A: Its clearance is 4.5 mL/min/kg.

Q: What about the MRT inf [2, 4] of the same compound?
A: The MRT inf was 2.29 h.

Q: And the MRT last [2, 4]?
A: Its MRT last is 2.21 h.

Q: And the Vd ([2]; male, Sprague-Dawley, rat, plasma, IV 2.32 mg/kg, mean of R1-R3, read-out: Vdss)?
A: The Vd was 0.603 L/kg.

Q: What about the bioavailability ([2]; male, Sprague-Dawley, rat, plasma, PO 10.4 mg/kg vs IV 2.32 mg/kg, mean, read-out: Bioavailability) of the same compound?
A: Its bioavailability is 94%.

Q: What about the AUC(0-inf) [2, 5] of the same compound?
A: The AUC(0-inf) was 38600 ng·h/mL.

Q: And the AUC(0-t) [2, 5]?
A: Its AUC(0-t) is 38500 ng·h/mL.

Q: And the Cmax [2, 5]?
A: The Cmax was 7330 ng/mL.

Q: And the Tmax [2, 5]?
A: Its Tmax is 2.67 h.

Q: What about the half-life [2, 5] of the same compound?
A: The half-life was 2.34 h.

Q: And the MRT inf [2, 5]?
A: The MRT inf was 4.18 h.

Q: What about the MRT last [2, 5] of the same compound?
A: The MRT last was 4.15 h.
